{"source": "patent US6737383B1", "about": "“Herbicidal oxadiazolidines” (priority 1999, dated 2004)", "key": {"[1]": {"system": "rape", "assay": "Test B pre/postemergence rape", "format": "in vivo, Brassica napus", "in_short": "(§1)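 Herbicidal effect was estimated by eye on a ten-point control scale after plants spent twelve to sixteen days in a greenhouse following soil or foliar treatment. Foliar sprays targeted plants at one to four leaves; all doses were formulated in a non-phytotoxic solvent with surfactant.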"}, "[2]": {"system": "winter barley", "assay": "Test E winter barley", "format": "in vivo, Hordeum vulgare", "conditions": "Preemergence"}, "[3]": {"system": "smallflower flatsedge", "assay": "Test B flood test smallflower flatsedge", "format": "in vivo, Cyperus difformis", "in_short": "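Read-out is a visual response score from 0 (no effect) to 10 (complete control), assigned by comparison with untreated controls. Treatment was applied at the 2-leaf stage, and plants stayed in the greenhouse for twelve to sixteen days before scoring.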"}, "[4]": {"system": "blackgrass", "assay": "Test E blackgrass", "format": "in vivo, Alopecurus myosuroides", "conditions": "Preemergence"}, "[5]": {"system": "purple nutsedge", "assay": "Test B pre/postemergence purple nutsedge", "format": "in vivo, Cyperus rotundus", "in_short": "as §1"}, "[6]": {"system": "wild oat", "assay": "Test E wild oat", "format": "in vivo, Avena fatua", "conditions": "Preemergence"}, "[7]": {"system": "winter wheat", "assay": "Test E winter wheat", "format": "in vivo, Triticum aestivum", "conditions": "Postemergence", "in_short": "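Postemergence: 60:40 sandy loam/greenhouse potting mix, 1- to 4-leaf stage. Formulation: solvent plus surfactant. Assessment: visual comparison with untreated controls at ~21–28 days.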"}, "[8]": {"system": "bedstraw", "assay": "Test B pre/postemergence bedstraw", "format": "in vivo, Galium aparine", "in_short": "as §1"}, "[9]": {"system": "green foxtail", "assay": "Test E green foxtail", "format": "in vivo, Setaria viridis", "conditions": "Preemergence"}, "[10]": {"system": "winter wheat", "assay": "Test E winter wheat", "format": "in vivo, Triticum aestivum", "conditions": "Preemergence"}, "[11]": {"system": "Italian ryegrass", "assay": "Test E Italian ryegrass", "format": "in vivo, Lolium multiflorum", "conditions": "Preemergence"}, "[12]": {"conditions": "Preemergence, Rate 250 g/ha, scale of 0 to 10 where 0 is no effect and 10 is complete control"}, "[13]": {"conditions": "Preemergence, Rate 500 g/ha, scale of 0 to 10 where 0 is no effect and 10 is complete control"}, "[14]": {"conditions": "Rate 62 g/ha, Postemergence, scale 0 to 10 (0 no effect, 10 complete control)"}, "[15]": {"conditions": "Rate 125 g/ha, Postemergence, scale of 0 to 10 where 0 is no effect and 10 is complete control"}, "[16]": {"conditions": "Rate 125 g/ha, Preemergence, scale of 0 to 10 where 0 is no effect and 10 is complete control"}, "[17]": {"conditions": "Rate 250 g/ha, Postemergence, scale of 0 to 10 where 0 is no effect and 10 is complete control"}, "[18]": {"conditions": "Rate 500 g/ha, 0 to 100 scale (0 no effect, 100 complete control)"}, "[19]": {"conditions": "Rate 1000 g/ha, 0 to 100 scale, 0 no effect, 100 complete control"}}, "data": [{"compound": "CCN(CC)C(=O)n1oc(=O)n(C2CC2)c1=O", "note": "[Compound 297]", "values": [{"measurement": "Rape plant response rating", "setting": "[1]; Preemergence, Rate 62 g/ha, scale of 0 to 10 where 0 is no effect and 10 is complete control", "value": 0}, {"measurement": "Rape plant response rating", "setting": "[1]; [12]", "value": 0}, {"measurement": "Plant response rating, Rape", "setting": "[1]; [13]", "value": 0}, {"measurement": "Rape plant response rating", "setting": "[1]; [14]", "value": 0}, {"measurement": "Rape plant response rating", "setting": "[1]; [15]", "value": 0}, {"measurement": "Rape plant response rating", "setting": "[1]; [16]", "value": 0}, {"measurement": "Plant response rating, Rape", "setting": "[1]; [17]", "value": 0}, {"measurement": "Plant response rating, Barley (winter)", "setting": "[2]; Rate 250 g/ha, 0 to 100 scale, 0 no effect, 100 complete control", "value": 50}, {"measurement": "Plant response rating, Barley (winter)", "setting": "[2]; [18]", "value": 55}, {"measurement": "Plant response rating, Barley (winter)", "setting": "[2]; [19]", "value": 60}, {"measurement": "S. Flatsedge plant response rating", "setting": "[3]; Rate 62 g/ha, headed Pre-emergence (flood test species), scale 0 to 10 (0 no effect, 10 complete control)", "value": 0}, {"measurement": "S. Flatsedge plant response rating", "setting": "[3]; Rate 125 g/ha, Pre-emergence, flood test species, scale 0 to 10 where 0 is no effect and 10 is complete control", "value": 0}, {"measurement": "S. Flatsedge plant response rating", "setting": "[3]; Rate 250 g/ha, Pre-emergence, flood-test species, scale 0 to 10, 0 is no effect, 10 is complete control", "value": 3}, {"measurement": "S. Flatsedge plant response rating", "setting": "[3]; Rate 500 g/ha, Pre-emergence, flood test species, scale 0 to 10 (0 no effect, 10 complete control)", "value": 3}, {"measurement": "Plant response rating, Blackgrass", "setting": "[4]; Rate 250 g/ha, 0 to 100 scale", "value": 40}, {"measurement": "Plant response rating, Blackgrass", "setting": "[4]; [18]", "value": 20}, {"measurement": "Plant response rating, Blackgrass", "setting": "[4]; [19]", "value": 50}, {"measurement": "Nutsedge plant response rating", "setting": "[5]; [12]", "value": 0}, {"measurement": "Plant response rating, Nutsedge", "setting": "[5]; [13]", "value": 0}, {"measurement": "Nutsedge plant response rating", "setting": "[5]; [14]", "value": 0}, {"measurement": "Nutsedge plant response rating", "setting": "[5]; [15]", "value": 0}, {"measurement": "Nutsedge plant response rating", "setting": "[5]; [16]", "value": 0}, {"measurement": "Plant response rating, Nutsedge", "setting": "[5]; [17]", "value": 0}, {"measurement": "Plant response rating, Wild oat", "setting": "[6]; Rate 250 g/ha, 0 to 100 scale", "value": 70}, {"measurement": "Plant response rating, Wild oat", "setting": "[6]; [18]", "value": 60}, {"measurement": "Plant response rating, Wild oat", "setting": "[6]; [19]", "value": 70}, {"measurement": "Plant response rating, Wheat (winter)", "setting": "[7]; Rate 250 g/ha, 0 to 100 scale, 0 is no effect, 100 is complete control", "value": 50}, {"measurement": "Plant response rating, Wheat (winter)", "setting": "[7]; Rate 1000 g/ha, 0 to 100 scale where 0 is no effect and 100 is complete control", "value": 70}, {"measurement": "Plant response rating, Wheat (winter)", "setting": "[7]; Rate 500 g/ha, 0 to 100 scale, 0 is no effect, 100 is complete control", "value": 60}, {"measurement": "Bedstraw plant response rating", "setting": "[8]; [12]", "value": 0}, {"measurement": "Plant response rating, Bedstraw", "setting": "[8]; [13]", "value": 0}, {"measurement": "Bedstraw plant response rating", "setting": "[8]; [14]", "value": 0}, {"measurement": "Bedstraw plant response rating", "setting": "[8]; [15]", "value": 0}, {"measurement": "Bedstraw plant response rating", "setting": "[8]; [16]", "value": 0}, {"measurement": "Plant response rating, Green foxtail", "setting": "[9]; Rate 250 g/ha, 0 to 100 scale", "value": 60}, {"measurement": "Plant response rating, Green foxtail", "setting": "[9]; [18]", "value": 60}, {"measurement": "Plant response rating, Green foxtail", "setting": "[9]; [19]", "value": 60}, {"measurement": "Plant response rating, Wheat (winter)", "setting": "[10]; Rate 250 g/ha, 0 to 100 scale", "value": 30}, {"measurement": "Plant response rating, Wheat (winter)", "setting": "[10]; [18]", "value": 60}, {"measurement": "Plant response rating, Wheat (winter)", "setting": "[10]; [19]", "value": 70}, {"measurement": "Plant response rating, I. Ryegrass", "setting": "[11]; Rate 250 g/ha, 0 to 100 scale", "value": 60}, {"measurement": "Plant response rating, I. Ryegrass", "setting": "[11]; [18]", "value": 50}, {"measurement": "Plant response rating, I. Ryegrass", "setting": "[11]; [19]", "value": 40}]}]}
